From PubChem BioAssay (NCI) come the findings set out here.

Test systems include MOLT-4 leukemia; CCRF-CEM leukemia; SK-MEL-5 melanoma; NCI/ADR-RES ovarian; NCI-H23 lung; HCT-116 colon; UACC-62 melanoma; RXF 393 renal; NCI-H226 lung; SNB-75 CNS; SK-MEL-28 melanoma; UACC-257 melanoma; DU-145 prostate; IGROV1 ovarian; A498 renal; HCT-15 colon; HCC-2998 colon; UO-31 renal.
Experiment in all cases: growth of human tumour cells (NCI), 48 h

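How tested: cells in 96-well plates exposed to compound for 48 hours at five concentrations. TGI: concentration producing complete growth inhibition.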

Consider `CN1CCc2cc(N)cc3c2C1Cc1ccc2c(c1-3)OCO2` (stereo unspecified), for which the TGI in the test on MOLT-4 leukemia was 35 µM; in the test with CCRF-CEM leukemia, 15.9 µM; with SK-MEL-5 melanoma, 49.8 µM; in the test on NCI/ADR-RES ovarian it was more than 83 µM; in the test on NCI-H23 lung, more than 100 µM; in the test with HCT-116 colon it was more than 90.4 µM. In addition, the TGI in the test on UACC-62 melanoma was 70.5 µM; in the test with RXF 393 renal, more than 88.2 µM; in the test on NCI-H226 lung, 83.2 µM; in the test on SNB-75 CNS it was more than 91.5 µM; in the test on SK-MEL-28 melanoma, more than 100 µM; in the test on UACC-257 melanoma it was more than 64.6 µM. Also, the TGI in the test with DU-145 prostate was 96.9 µM; in the test on IGROV1 ovarian it was 58.5 µM; in the test with A498 renal, more than 100 µM; in the test with HCT-15 colon, more than 100 µM; in the test with HCC-2998 colon, 51.4 µM; in the test with UO-31 renal, 84.6 µM.
With `Cc1cn(C2CC(NC(=NCC3OC(n4cnc5c(N)ncnc54)CC3O)NC#N)C(CO)O2)c(=O)[nH]c1=O` (stereo unspecified), the TGI with MOLT-4 leukemia, with CCRF-CEM leukemia, in the test with SK-MEL-5 melanoma, in the test with NCI/ADR-RES ovarian, with NCI-H23 lung and in the test on HCT-116 colon was more than 100 µM in each case. Moreover, the TGI with UACC-62 melanoma, with RXF 393 renal, with NCI-H226 lung, with SNB-75 CNS, in the test on SK-MEL-28 melanoma and in the test on UACC-257 melanoma was more than 100 µM throughout. Besides, the TGI with DU-145 prostate, in the test with IGROV1 ovarian, with A498 renal, in the test on HCT-15 colon, in the test on HCC-2998 colon and in the test with UO-31 renal was more than 100 µM in each case.
Consider `CC1=C[C@@H]2[C@@H](CC(CO)=C[C@H]3[C@@H]4C(C)(C)[C@]4(OCC(C)C)[C@H](OCC(C)C)[C@@H](C)[C@]23O)C1=O`, for which the TGI is 2.96 µM in the test on MOLT-4 leukemia; 8.12 µM with CCRF-CEM leukemia; more than 4.37 µM with SK-MEL-5 melanoma; 8.31 µM with NCI/ADR-RES ovarian; 5.81 µM in the test with NCI-H23 lung; more than 4.72 µM in the test with HCT-116 colon. Moreover, the TGI with UACC-62 melanoma was 3.2 µM; in the test with RXF 393 renal, 3.69 µM; in the test on NCI-H226 lung, more than 4.53 µM; with SNB-75 CNS, more than 8.32 µM; in the test on SK-MEL-28 melanoma, 3.38 µM; in the test with UACC-257 melanoma it was 3.72 µM. In addition, the TGI in the test with DU-145 prostate was more than 8.32 µM; in the test with IGROV1 ovarian, 4.8 µM; in the test on A498 renal, more than 4.44 µM; in the test on HCT-15 colon, 2.77 µM; with HCC-2998 colon it was 1.78 µM; in the test with UO-31 renal, more than 6.8 µM.
Regarding `COc1cccc(Nc2nc(N)nc(N)c2N=O)c1`, the TGI in the test with MOLT-4 leukemia was found to be 41.8 µM; in the test with CCRF-CEM leukemia, 93.4 µM; with SK-MEL-5 melanoma, 39.1 µM; with NCI/ADR-RES ovarian, 52.5 µM; in the test with NCI-H23 lung, 31.5 µM; with HCT-116 colon, 38.2 µM. The TGI in the test with UACC-62 melanoma is 38.8 µM; in the test with RXF 393 renal it was more than 100 µM; in the test on NCI-H226 lung, 90.9 µM; in the test on SNB-75 CNS it was 91.1 µM; in the test with SK-MEL-28 melanoma it was 69.8 µM; with UACC-257 melanoma it was 56.9 µM. In addition, the TGI in the test on DU-145 prostate was determined as 36.7 µM; with IGROV1 ovarian, 94 µM; in the test on A498 renal, 47.7 µM; in the test with HCT-15 colon, 47 µM; in the test with HCC-2998 colon, 34.4 µM; with UO-31 renal, 38.1 µM.
As to `Cn1c(=O)c2c(nc3n(C)c(=O)c4ccccc4n23)n(C)c1=O`, the TGI is 13.4 µM with MOLT-4 leukemia; 44.9 µM in the test with CCRF-CEM leukemia; more than 100 µM with SK-MEL-5 melanoma; more than 100 µM in the test on NCI/ADR-RES ovarian; more than 100 µM in the test on NCI-H23 lung; more than 100 µM with HCT-116 colon. Moreover, the TGI is more than 100 µM in the test with UACC-62 melanoma; more than 100 µM in the test with RXF 393 renal; 58.7 µM in the test with NCI-H226 lung; more than 93.5 µM in the test with SNB-75 CNS; more than 100 µM in the test on SK-MEL-28 melanoma; more than 100 µM with UACC-257 melanoma. For the same molecule, the TGI in the test with DU-145 prostate is more than 83.6 µM; in the test with IGROV1 ovarian, more than 100 µM; with A498 renal, more than 63.6 µM; in the test with HCT-15 colon, more than 100 µM; in the test on HCC-2998 colon, more than 100 µM; in the test on UO-31 renal, more than 100 µM.
`OC(CC(O)(C(F)(F)F)C(F)(F)F)C(O)c1ccco1` (stereo unspecified): the TGI in the test with MOLT-4 leukemia, in the test on CCRF-CEM leukemia, in the test on SK-MEL-5 melanoma, with NCI/ADR-RES ovarian, in the test on NCI-H23 lung and in the test with HCT-116 colon was more than 10 µM each time. Moreover, the TGI in the test with UACC-62 melanoma, with RXF 393 renal, in the test with NCI-H226 lung, with SNB-75 CNS, with SK-MEL-28 melanoma and in the test with UACC-257 melanoma was more than 10 µM in each case. Moreover, the TGI in the test with DU-145 prostate, in the test on IGROV1 ovarian, in the test with A498 renal, with HCT-15 colon, in the test with HCC-2998 colon and in the test on UO-31 renal was more than 10 µM each time.
Turning to `Cc1cc(O)c2c(c1)CC(O)C1=C2C(=O)c2c(O)ccc(OC3CC(O)C(OC4CC(OC5CCC(O)C(C)O5)C(O)C(C)O4)C(C)O3)c2C1=O` (stereo unspecified), the TGI is 1.75 µM in the test on MOLT-4 leukemia; 0.706 µM in the test with CCRF-CEM leukemia; 2.78 µM in the test on SK-MEL-5 melanoma; 9.61 µM in the test on NCI/ADR-RES ovarian; 3.88 µM with NCI-H23 lung; 3.47 µM with HCT-116 colon. For the same molecule, the TGI with UACC-62 melanoma stood at 3.05 µM; with RXF 393 renal, 3.02 µM; in the test with NCI-H226 lung it was 3.32 µM; in the test on SNB-75 CNS it was 7.73 µM; in the test with SK-MEL-28 melanoma, 3.86 µM; with UACC-257 melanoma, 2.93 µM. In addition, the TGI with DU-145 prostate is 3.19 µM; in the test with IGROV1 ovarian it was 2.9 µM; with A498 renal it was 4.91 µM; with HCT-15 colon, 4.64 µM; in the test with HCC-2998 colon, 3.58 µM; with UO-31 renal it was 3.23 µM.
